Experimental data: US20240279687A1, “PEPTIDE NUCLEIC ACIDS FOR SPATIOTEMPORAL CONTROL OF CRISPR-CAS BINDING” (Yale University, priority 2021, published 2024)
{Lys} = L-lysine residue attached to the PNA terminus

Legend:
[1] = system: Cas9 RNP (FANCF, EMX1, ZSCAN2, CCR5, VEGFA gRNAs); experiment: On-target specificity of Cas9 RNP (ratio of on-target to off-target editing rates); assay type: cell-based, human
Experimental: (§1) For PNA pre-treatments, 1×10^6 cells and 1 μL of PNA diluted to desired concentration in water were similarly nucleofected using Lonza cell line kits and 4D-Nucleofector. PNA nucleofected cells were resuspended in 1.25 mL of complete media in 1.5 mL tubes and incubated at 37° C. for 2 hours before Cas9 RNP nucleofection as described above. After Cas9 RNP nucleofection cells were seeded in 2 mL of complete media and incubated for 96 hours prior to harvesting and analysis.
(§2) Genomic DNA was purified from 0.5×10^6 cells using Promega ReliaPrep gDNA Tissue Miniprep System (A2052) and eluted in 50 μL of water. Library prep used 100 ng of gDNA input with Ampliseq for Illumina Library Plus kit (20019101, Illumina) and used a custom primer pool designed to amplify a designed panel of genomic targets of interest (Table 9). Libraries were indexed, pooled, and loaded onto a Mid-output (300-cycles, Illumina, FC-420-1004) cartridge for paired-end sequencing on an Illumina Miniseq instrument. FASTQ reads were subjected to quality analysis (Basespace FASTQC) and analyzed for indel frequency using Cas-Analyzer assessment tool (parameters: Comparison range (R)—both ends of full amplicon sequence, Minimum frequency (n)=1). gRNAs used in this study are listed in Table 8, amplicon genomic coordinates listed in Table 9.
In the case of EMX1 ON and OFF target amplicons, both regions were amplified from 200 ng of purified gDNA by Phusion High-Fidelity Polymerase (NEB, M0530S) and pooled and purified using QIAGEN PCR purification kit (28104, Qiagen). Library prep used 200 ng of purified amplicon input with Illumina DNA Prep kit (20025519, Illumina). EMX1 libraries were similarly indexed, pooled, sequenced, and analysed as above.
For pre-annealed PAM-distal PNA experiments, 50 pmol of sgRNA and 50 pmol of PAM-distal 10mer PNAs were incubated in a thermocycler at 37° C. for 30 minutes in a 5 μL reaction in 1×3.1 Buffer (B7203S, NEB) to allow annealing. PNA annealing to sgRNAs was confirmed by gel shift on 5% polyacrylamide gel. 45 pmol of SpCas9 (CP02, PNA BIO) was then added at room temperature and incubated for 10 minutes to allow RNP formation. Resulting reaction was delivered to 1×10^6 K562 cells by a single nucleofection and treated as described above.

[2] = system: Cas9 RNP using a sgRNA targeted to the BFP gene; experiment: Cas9 RNP editing of BFP reporter gene in K562-BFP cells (BFP fluorescent drop out, flow cytometry); assay type: cell-based, human; details: for inhibitory effect on Cas9-mediated BFP gene disruption and indel formation: 0-250 pmol nucleofected 2 hours prior to Cas9 RNP
Experimental: (§3) For Cas9 RNP assembly, 50 pmol of sgRNA (IDT, Alt-R CRISPR-Cas9 sgRNA) and 45 pmol of SpCas9 (CPO2, PNA BIO) were incubated at room temperature for 10 minutes in a 5 μL reaction in 1×3.1 Buffer (B7203S, NEB). For nucleofections, 1×10^6 cells, 5 μL Cas9 RNP, and 1 μL of Alt-R Cas9 electroporation enhancer (IDT) were resuspended in 100 μL of Lonza cell line solution (V4XC-2024/V4XC-1024, Lonza) and nucleofected using a Lonza 4D-Nucleofector X unit. Cas9 RNP treated cells were seeded in 2 mL of complete media and incubated for 96 hours prior to harvesting for analysis.
as §1
K562 cells were spun down and resuspended in fresh complete media at 300,000 cells/mL 48 hours prior to analysis. Samples for flow cytometry were fixed in complete media with 1% formaldehyde for 15 minutes before spinning down, resuspending in 300 μL PBS, and filtering through a cell strainer capped tube. Samples were analyzed for BFP and GFP fluorescence using a Cytoflex LX instrument (Beckman Coulter) using PacificBlue and FITC lasers, respectively, and quantification and gating was done using FloJo v10 software. Background fluorescent drop out was determined by measurement of mock nucleofected lines in quadruplicate and subtracted from experimental values to determine reported editing frequency.
10^6 stable BFP-expressing K562 cells were nucleofected (Lonza 4D Nucleofector) with a specified dose of PNA or ssDNA oligo (0-250 pmol). Two hours later, all conditions were nucleofected with 45 pmol of purified Cas9 RNP using a sgRNA targeted to the BFP gene. 72 hours later, cells with BFP fluorescent drop out (via Cas9 indel formation) were quantified by flow cytometry (Beckman Coulter—Cytoflex instrument).
In time-course experiments in FIG. 3D, K562 samples were nucleofected with 5 μL RNP reactions with the addition of 100 pmol of ssODN donor in 1 μL of water. RNP nucleofected samples were incubated at 37° C. in complete media before being spun down and nucleofected with 250 pmol of PNA at specified time points. After PNA delivery cells were seeded in 2 mL of complete media and incubated for 96 hours prior to harvesting and analysis.
10^6 stable BFP-expressing K562 cells were nucleofected (Lonza 4D Nucleofector) with specified dose (0-250 pmol, or 250 pmol if unspecified) of specified PNA with sequences homologous to (antispacer) or identical to (cis-spacer) the BFP gRNA spacer sequence. Two hours later, all conditions were nucleofected with 45 pmol of purified Cas9 RNP using a sgRNA targeted to the BFP gene. 72 hours later, cells with BFP fluorescent drop out (via Cas9 indel formation) were quantified by flow cytometry (Beckman Coulter—Cytoflex instrument).
10^6 stable BFP-expressing K562 cells were nucleofected (Lonza 4D Nucleofector) with 45 pmol of purified Cas9 RNP using a sgRNA targeted to the BFP gene. At each specified time point 250 pmol of BFP Anti-protospacer PNA were introduced via nucleofection. For “Cas9 only” condition there was no second PNA nucleofection and for “0 hrs” 250 pmol of PNA was co-nucleofected with Cas9 in a single reaction. After each nucleofection samples were left in fresh media for the duration of the experiment to acquire edits. 72 hours after the “24 hrs” nucleofection, cells for all conditions with BFP fluorescent drop out (via Cas9 indel formation) were quantified by flow cytometry (Beckman Coulter—Cytoflex instrument).

dCas9-VPR / POU5F1 sgRNA = experiment: CRISPRa (dCas9-VPR) POU5F1 expression in stable K562 cells, RT-qPCR; assay type: cell-based, human; details: 250 pmol PNA
Experimental: Stable K562-hEF1α-dCas9-VPR line was established by lentiviral transduction using Edit-R purified lentiviral particles (Horizon Discovery) and blasticidin selection (5 μg/mL, A1113903, Gibco). dCas9-VPR integration was confirmed by western blot with CRISPR-Cas9 antibody (7A9-3A3, Novus). dCas9-VPR expressing line was further transduced with Edit-R CRISPRa human POU5F1 sgRNA purified lentiviral particles (VSGH11902, Horizon Discovery, Table 4) and puromycin selection (2 μg/mL, Gibco).
4×10^6 stable dCas9-VRP/POU5F1 sgRNA expressing K562 cells (generated using lentivirus from Horizon Discovery), or K562 cells, were nucleofected with 250 pmol of specified PNA (non-targeting BFP or POU5F1) using a Lonza 4D nucleofector. At each specified time point 500 μL of cells were removed from each condition flask, spun down, and frozen. RNA was extracted from each pellet using QIAGEN Rneasy Mini Kits and cDNA was generated using Applied Biosystems High Capacity cDNA reverse transcription kit. rtPCR reactions were conducted for each sample using a StepOnePLUS Real-Time PCR System (Applied Biosystems) using Taqman Fast Advanced Master Mix and TaqMan gene specific probes for POU5F1 and GAPDH. Expression relative to the untreated parent K562 line was recorded as fold-change and calculated using the ΔΔCT method.
For RNA extractions 0.5×10^6 K562 cells were spun down, washed once with PBS, homogenized using QIAshredder columns (QIAGEN 79656) and processed using QIAGEN RNeasy mini kits (74106) before eluting in 50 μL of water. Resulting RNA was used as input for high-capacity cDNA Reverse Transcription Kit (Applied Biosystems) and resulting reaction was diluted 1:5 with water. RT-qPCR reactions were conducted in triplicate for each sample using a StepOnePLUS Real-Time PCR System (Applied Biosystems) and Taqman Fast Advanced Master Mix (Applied Biosystems) with TaqMan gene specific probes (Table 8). Expression relative to the untreated K562 parent line was recorded as fold-change and calculated from averaged CT values using the ΔΔCT method.

[3] = system: Cas9 RNP using a sgRNA targeted to the HBB gene (R-01); experiment: Cas9 RNP editing at HBB in K562 cells (amplicon sequencing); assay type: cell-based, human
Experimental: as §3, §1
10^6 stable BFP-expressing K562 cells were nucleofected (Lonza 4D Nucleofector) with a specified dose of BFP cis-protospacer PNA or HBB PNA (0-250 pmol). Two hours later, all conditions were nucleofected with 45 pmol of purified Cas9 RNP using a sgRNA targeted to the BFP gene or targeted to the HBB gene (R-01). 72 hours later, cells with BFP fluorescent drop out (via Cas9 indel formation) were quantified by flow cytometry (Beckman Coulter Cytoflex instrument) for the BFP target (FIG. 3A). For the HBB target (FIG. 3B-3C), 72 hours post-treatment gDNA was extracted (Promega ReliaPrep) and the region of interest was PCR amplified (NEB Phusion). Indel frequency was measured by T7 endonuclease assay (NEB—EnGen Mutation Detection Kit).
as §2

[4] = system: 20mer RNA oligonucleotide (spacer sequence designed to target the BFP gene); experiment: UV spectroscopy thermal melting analysis of duplexes; assay type: binding; details: 1 μM each strand, 10 mM sodium phosphate buffer pH 7.4
Experimental: All samples were prepared by mixing a stoichiometric amount of each strand (1 μM) in 10 mM sodium phosphate buffer at pH 7.4 (Table 8). The samples were pre-annealed at 95° C. for 5 mins and gradually cooled to room temperature prior to the melting experiment. UV melting experiments were performed using a Shimadzu UV-3600 Plus UV-Vis-NIR spectrophotometer equipped with a thermoelectrically controlled multicell holder. UV melting spectra were recorded after every 1° C. temperature change by monitoring the absorbance at 260 nm from 20° C. to 110° C. to 20° C., with a heating/cooling ramp rate of 1.0° C./min. The heating and cooling curves were overlapped to confirm reversible denaturation. All spectra were plotted on Origin 2020 and smoothed using a 20-point adjacent averaging algorithm. The first derivative plots of the melting curves were generated to determine the melting temperature for each duplex.

[5] = 150 pmol dose, three replicates

Q: Which results are given for “GCTCGGACTC (all peptide nucleic acid (PNA); further chemistry not fully specified) [EMX1 PAMdist 10 mer PNA]”?
A: specificity ratio versus Cas9 only ([1]; K562, HEK293, and U2OS cell lines, PNA pre-treatment prior to Cas9 RNP nucleofection): significantly increased specificity ratios; specificity versus pre-treatment approaches ([1]; PNA pre-annealed to sgRNA prior to Cas9 RNP formation, delivered as a single complex, K562): further improved specificity

Q: Which “inhibitory effect on Cas9-mediated BFP gene disruption and indel formation” value (shortened to “inhibitory effect”) ([2]; listed as heterologous GFP PNA) does the source give for “KKK-GGGTTAAGGCAATAGCAATA-KKK [GFP Non-Targeting PNA]” here?
A: Its value is “no effect”.

Q: And the “inhibitory effect” value ([2]; listed as non-targeting (GFP) PNA)?
A: Its value is “entirely ineffective”.

Q: With “K-GTGCTTCAGC-K (all peptide nucleic acid (PNA), 5' {Lys}, 3' {Lys}) [BFP PAM-distal PNA]” as the substance, how does the “inhibitory effect” value [2] read?
A: Its value is “attenuated effect”.

Q: What about the “reduction of BFP editing” value ([2]; 50 pmol dose) of the same substance?
A: Its value is 10%.

Q: And the “reduction of BFP editing” value ([2]; 250 pmol dose)?
A: Its value is 32%.

Q: With “KKK-CCACCATTAGGCAAACATCC-KKK (all peptide nucleic acid (PNA), 5' {Lys}-{Lys}-{Lys}, 3' {Lys}-{Lys}-{Lys}) [POU5F1 CRISPRa PNA]” as the substance, how does the “duration of the full effect” value (dCas9-VPR / POU5F1 sgRNA) read?
A: Its value is 2 to 3 days.

Q: And the “effect on CRISPRa upregulated POU5F1 expression” value (dCas9-VPR / POU5F1 sgRNA)?
A: The value was “down to the level of the parental K562 line”.

Q: And the “time after treatment at which the effect appears to dissipate” value (dCas9-VPR / POU5F1 sgRNA)?
A: The value was “approximately 5 days”.

Q: And the “time by which POU5F1 expression dropped to the level of the parent line expression” value (dCas9-VPR / POU5F1 sgRNA)?
A: Its value is ≤ 48 h.

Q: What about the “time by which expression began to return to its upregulated baseline” value (dCas9-VPR / POU5F1 sgRNA) of the same substance?
A: The value was ≤ 120 h.

Q: “CCAACTGCAT (all peptide nucleic acid (PNA); further chemistry not fully specified) [HBB R-01 PAMprox 10 mer PNA, 1 Lysine (K) on either end]” was tested. Which HBB editing ([3]; 50 pmol PNA (45.2% without PNA)) did it give?
A: Its HBB editing is 0.102%.

Q: And the “mean fold reduction of HBB target editing” value [3, 5]?
A: The value was 2,372 fold.

Q: And the “total indels detected across 28,104 analyzed amplicons” value [3, 5]?
A: Its value is 6.

Q: And the “fold reduction of HBB target editing” value ([3]; 1:1 PNA:sgRNA ratio (50 pmol))?
A: The value was 443 fold.

Q: How did the “Tm of duplex with RNA spacer sequence” value [4] turn out when “AUGGCGUGCAGUGCUUCAGC (chemistry not given here) [Antispacer RNA (melting study), complementary RNA oligomer (length 20nt), IDT]” was run?
A: The value was 69 °C.

Q: For “ATGGCGTGCAGTGCTTCAGC (KKK-ATGGCGTGCAGTGCTTCAGC-KKK; as printed in the source, key not given here) [Anti-protospacer ssDNA oligo, reference compound]”, which “inhibitory effect” value [2] is on record?
A: The value was “entirely ineffective”.

Q: What about the “inhibitory effect” value ([2]; listed as antispacer DNA) of the same substance?
A: Its value is “no effect”.

Q: What about the “Tm of duplex with RNA spacer sequence” value [4] of the same substance?
A: Its value is 56 °C.

Q: Which “fold reduction in editing” value ([2]; 5:1 PNA:sgRNA ratio (250 pmol)) does the source give for “K-GTGCAGTGCT-K (all peptide nucleic acid (PNA), 5' {Lys}, 3' {Lys}) [BFP PAM-middle PNA]” here?
A: The value was 32.4 fold.

Q: How did the “reduction of BFP editing” value ([2]; 50 pmol dose) turn out when “K-ATGGCGTGCA-K (all peptide nucleic acid (PNA), 5' {Lys}, 3' {Lys}) [BFP PAM-proximal PNA]” was run?
A: The value was 96.0%.

Q: What about the “reduction of BFP editing” value ([2]; 250 pmol dose) of the same substance?
A: Its value is 99.7%.

Q: What about the “fold reduction in editing” value ([2]; 1:1 PNA:sgRNA molar ratio (50 pmol)) of the same substance?
A: The value was 24.5 fold.

Q: And the “fold reduction in editing” value ([2]; 5:1 PNA:sgRNA ratio (250 pmol))?
A: Its value is 342.6 fold.
